# Source: patent publication US9321762B2, “Quinazoline compounds, method for preparing the same and use thereof” (DEVELOPMENT CENTER FOR BIOTECHNOLOGY, priority 2013, dated 2016)
# Like-named read-outs stand apart in the source and are kept apart here.
# Tests used:
# B-Raf kinase = biological target: T1, B-Raf kinase (Homo sapiens, UniProt P15056); experiment: B-Raf kinase assay ([33P] incorporation into MEK1(K97R)); type: biochemical; conditions: class symbols; 8 μM ATP; read-out: IC50 against B-Raf kinase
# T1 construct: purchased Upstate Biotechnology
# T1 sequence (P15056 whole entry): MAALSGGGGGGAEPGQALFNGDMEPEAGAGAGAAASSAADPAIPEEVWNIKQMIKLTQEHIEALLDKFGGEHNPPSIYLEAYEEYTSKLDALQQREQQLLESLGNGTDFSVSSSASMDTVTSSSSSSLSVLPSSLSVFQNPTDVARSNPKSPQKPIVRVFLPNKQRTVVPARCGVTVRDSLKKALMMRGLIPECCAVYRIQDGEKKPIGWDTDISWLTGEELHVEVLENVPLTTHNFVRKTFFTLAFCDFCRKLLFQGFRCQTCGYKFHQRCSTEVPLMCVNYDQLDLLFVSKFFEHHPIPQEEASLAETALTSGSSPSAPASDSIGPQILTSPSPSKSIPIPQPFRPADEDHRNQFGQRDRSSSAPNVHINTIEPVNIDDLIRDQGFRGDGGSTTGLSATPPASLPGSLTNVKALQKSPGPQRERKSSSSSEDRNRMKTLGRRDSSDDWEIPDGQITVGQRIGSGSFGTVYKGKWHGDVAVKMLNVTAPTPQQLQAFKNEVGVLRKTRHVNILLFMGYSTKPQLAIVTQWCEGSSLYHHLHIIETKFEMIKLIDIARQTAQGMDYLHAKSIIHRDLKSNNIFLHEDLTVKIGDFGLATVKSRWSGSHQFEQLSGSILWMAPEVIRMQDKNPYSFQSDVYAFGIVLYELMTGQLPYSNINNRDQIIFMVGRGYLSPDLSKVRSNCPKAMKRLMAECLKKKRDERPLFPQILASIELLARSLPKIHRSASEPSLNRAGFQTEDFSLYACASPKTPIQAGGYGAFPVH
# Protocol: (§1) Inhibition of kinase activity by a test compound disclosed herein was estimated by quantifying the amount of [^33P] incorporation of a substrate in the presence of the test compound. Standard assay conditions were 5 ng of recombinant B-Raf kinase (Upstate Biotechnology) with 500 ng MEK1(K97R) in assay buffer (8 μM ATP, 0.5 μCi [^33P]ATP (specific activity 3000 Ci/mmol, PerkinElmer), 50 mM Tris/HCl (pH7.5), and 1 mM EGTA, 1 mM Na3VO4, 1% 2-mercaptoethanol, 0.1% Brij 35, and 0.2 mg/ml BSA) in a final volume of 25 μL. Reactions were incubated at 30° C. for 30 min and stopped by adding 3% phosphoric acid, harvested onto a 96-well GF/B UniFilter (PerkinElmer) using a unifilter harvester (PerkinElmer), and counted with a TopCount microplate scintillation counter (PerkinElmer). The IC50 values of inhibitors were determined after carrying out assays at 3-fold serially diluted concentrations of each compound in duplication. The results were analyzed using linear regression software (GraphPad Prism 4; GraphPad Software Inc.).
# B-Raf(V600E) kinase = biological target: T2, B-Raf(V600E) kinase (Homo sapiens, UniProt P15056, V600E); experiment: B-Raf(V600E) kinase assay ([33P] incorporation into MEK1(K97R)); type: biochemical; conditions: class symbols; 8 μM ATP; read-out: IC50 against B-Raf(V600E) kinase
# T2 construct: purchased Upstate Biotechnology
# T2 sequence (P15056 whole entry V600E): as the sequence (P15056 whole entry) above, with V600E counted along it
# Protocol: as §1, with “B-Raf(V600E)” for “B-Raf”, “MEK1 (K97R)” for “MEK1(K97R)”, “[^33P] ATP” for “[^33P]ATP”, “BSA), and the test compound (diluted with 4% DMSO) or DMSO alone (as a control)” for “BSA)”
# C-Raf kinase = biological target: T3, C-Raf kinase (Homo sapiens, UniProt P04049); experiment: C-Raf kinase assay ([33P] incorporation into MEK1(K97R)); type: biochemical; conditions: class symbols; 8 μM ATP; read-out: IC50 against C-Raf kinase
# T3 construct: purchased Upstate Biotechnology
# T3 sequence (P04049 whole entry): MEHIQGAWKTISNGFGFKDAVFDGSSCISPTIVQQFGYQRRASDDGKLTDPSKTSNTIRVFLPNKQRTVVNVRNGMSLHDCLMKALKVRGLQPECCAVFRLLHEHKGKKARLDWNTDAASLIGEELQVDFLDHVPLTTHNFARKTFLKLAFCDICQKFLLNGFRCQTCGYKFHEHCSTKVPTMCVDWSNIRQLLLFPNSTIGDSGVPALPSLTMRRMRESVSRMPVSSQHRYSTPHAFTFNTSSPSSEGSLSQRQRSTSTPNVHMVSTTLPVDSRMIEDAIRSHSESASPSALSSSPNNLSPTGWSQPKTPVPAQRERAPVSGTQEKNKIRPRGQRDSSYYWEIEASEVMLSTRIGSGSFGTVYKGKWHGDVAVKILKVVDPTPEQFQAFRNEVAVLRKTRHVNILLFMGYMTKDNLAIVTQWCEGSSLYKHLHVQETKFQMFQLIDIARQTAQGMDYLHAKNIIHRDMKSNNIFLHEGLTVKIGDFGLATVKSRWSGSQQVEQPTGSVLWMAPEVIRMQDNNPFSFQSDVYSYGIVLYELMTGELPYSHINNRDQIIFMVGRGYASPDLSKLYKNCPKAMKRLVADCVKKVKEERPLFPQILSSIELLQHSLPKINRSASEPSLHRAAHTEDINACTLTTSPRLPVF
# Protocol: as §1, with “were 2” for “were 5”, “recombinant C-Raf” for “recombinant B-Raf”, “ng MEK1 (K97R)” for “ng MEK1(K97R)”, “μCi [^33P] ATP” for “μCi [^33P]ATP”, “mg/ml BSA), and the test compound (diluted with 4% DMSO) or DMSO alone (as a control)” for “mg/ml BSA)”
# VEGFR2 kinase = biological target: T4, VEGFR2 kinase (Homo sapiens, UniProt P35968); experiment: VEGFR2 radiometric kinase assay; type: biochemical; conditions: given as bound; 100 μM ATP; read-out: Inhibition activity, IC50 VEGFR2
# T4 construct: VEGFR2 kinase domain alone, Millipore; purchased Millipore
# T4 sequence (P35968 834-1162 limits assumed): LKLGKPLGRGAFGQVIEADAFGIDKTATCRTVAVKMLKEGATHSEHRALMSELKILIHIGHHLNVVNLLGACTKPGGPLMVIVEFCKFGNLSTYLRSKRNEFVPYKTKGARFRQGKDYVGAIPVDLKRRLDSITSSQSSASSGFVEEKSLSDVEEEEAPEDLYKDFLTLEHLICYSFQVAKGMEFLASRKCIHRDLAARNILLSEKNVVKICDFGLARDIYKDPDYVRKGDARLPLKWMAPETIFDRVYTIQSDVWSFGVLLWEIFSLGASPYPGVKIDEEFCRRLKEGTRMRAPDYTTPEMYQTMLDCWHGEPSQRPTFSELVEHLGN
# Protocol: (§2) The inhibitory activity against VEGFR2 or EGFR was determined by radiometric kinase assay. The experimental condition for VEGFR2 kinase assay was 6.25 ng of recombinant VEGFR2 kinase (VEGFR2 kinase domain alone, Millipore), 5 μg of substrate Poly(Glu-Tyr) (4:1, Sigma), kinase reaction buffer (20 mM MOPS pH 7.0, 1 mM EDTA, 5% glycerol, 0.01% Brij-35, 0.1% β-mercaptoethanol, 1 mg/mL BSA, 100 μM ATP, and 0.1 μCi per well [^33P] ATP (specific activity 3000 Ci/mmol, PerkinElmer)), and the test compound (diluted with 4% DMSO) or DMSO alone (as a control) in a final volume of 25 μL. Reactions were incubated at 30° C. for 30 min and stopped by adding 3% phosphoric acid, harvested onto a 96-well GF/B UniFilter (PerkinElmer) using a unifilter harvester (PerkinElmer), and counted with a TopCount microplate scintillation counter (PerkinElmer).
# (§3) Results of inhibition activity against VEGFR2 and EGFR kinases by the selected compounds, which have IC50 values on B-Raf kinase <300 nM, are summarized in Table 6.
# EGFR kinase = biological target: T5, EGFR kinase (Homo sapiens, UniProt P00533); experiment: EGFR radiometric kinase assay; type: biochemical; conditions: 100 μM ATP, read-out: Inhibition activity, IC50 EGFR
# T5 construct: EGFR kinase domain alone, Millipore; purchased Millipore
# T5 sequence (P00533 712-979 limits assumed): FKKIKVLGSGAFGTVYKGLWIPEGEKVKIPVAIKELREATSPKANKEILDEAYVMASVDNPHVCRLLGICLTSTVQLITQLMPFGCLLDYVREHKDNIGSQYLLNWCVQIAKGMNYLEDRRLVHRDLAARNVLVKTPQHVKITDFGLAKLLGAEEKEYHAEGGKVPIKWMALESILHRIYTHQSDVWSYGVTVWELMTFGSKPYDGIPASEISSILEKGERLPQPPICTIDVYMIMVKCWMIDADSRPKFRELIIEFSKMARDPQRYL
# Protocol: as §2
# The experimental condition for EGFR kinase assay was 25 ng of EGFR kinase (EGFR kinase domain alone, Millipore), 3 μg of the substrate poly(Glu-Tyr), (Sigma), kinase reaction buffer (10 mM MOPS pH 7.0, 0.3 mM EDTA, 0.5% glycerol, 0.001% Brij-35, 10 mM MnCl2, 0.1 mg/ml BSA, 100 μM ATP, and 0.1 μCi per well [^33P]ATP (specific activity 3000 Ci/mmol, PerkinElmer)), and the test compound (diluted with 4% DMSO) or DMSO (as a control) in a final volume of 25 μL. Reactions were incubated at 30° C. for 30 min and stopped by adding 3% phosphoric acid, harvested onto a 96-well GF/B UniFilter (PerkinElmer) using a unifilter harvester (PerkinElmer), and counted with a TopCount microplate scintillation counter (PerkinElmer).
# as §3
# [1] = system: A375 melanoma cells and COLO205 colon cancer cells; experiment: Cell proliferation assay (CellTiter-96); type: cell-based; conditions: Homo sapiens; A375 or COLO205, 72 hours treatment; read-out: Cytotoxicity IC50 for A375 or COLO205
# Protocol: The anti-proliferative activities of compounds of formula (I) against B-Raf(V600E) mutant human cancer cell lines, A375 melanoma cells and COLO205 colon cancer cells, were measured using the CellTiter™-96 assay kit (Promega) following the manufacturer's instructions. In brief, the cells were maintained in DMEM containing 10% FCS and incubated at 37° C. in 5% CO2 atmosphere. Cells were plated at a density of 2,000 cells/well on a 96-well plate and incubated for 24 h. Then, these cells were treated with different concentrations of the test compounds and incubated for another 72 hours. At the end of the incubation, CellTiter™-96 Aqueous One Solution Reagent (Promega) was added and incubated for another 4.0 hours. Cell viability was determined by measuring absorbance at 490 nm using EMax® microplate reader (Molecular Devices). Data were processed and analyzed using GraphPad Prism.
Compound,IC50 (B-Raf kinase) [µM],IC50 (B-Raf(V600E) kinase) [µM],IC50 (C-Raf kinase) [µM],IC50 (VEGFR2 kinase) [µM],IC50 (EGFR kinase; given as bound) [µM],IC50 [1] [µM],IC50 (EGFR kinase; class symbols) [µM]
"CCCS(=O)(=O)Nc1ccc(F)c(Nc2ncnc3cc(OCCN4CCOCC4)c(-c4cccnc4F)cc23)c1F [compound 8, N-(2,4-difluoro-3-(6-(2-fluoropyridin-3-yl)-7-(2-morpholinoethoxy)quinazolin-4-ylamino)phenyl)propane-1-sulfonamide]",< 0.3,< 0.3,0.3 to 1,> 3,> 3,< 2,–
"CCCS(=O)(=O)Nc1ccc(F)c(Nc2ncnc3ccc(-c4cccnc4Cl)cc23)c1F [compound 57, N-(3-(6-(2-chloropyridin-3-yl)-quinazolin-4-ylamino)-2,4-difluorophenyl)propane-1-sulfonamide]",< 0.3,< 0.3,< 0.3,> 3,> 3,< 2,–
"CCCS(=O)(=O)Nc1ccc(F)c(Nc2ncnc3ccc(-c4ccnc(OC)c4)cc23)c1F [compound 31, N-(2,4-difluoro-3-(6-(2-methoxypyridin-4-yl)quinazolin-4-ylamino)phenyl)propane-1-sulfonamide]",< 0.3,< 0.3,< 0.3,> 3,–,< 2,0.3 to 1
"CCCS(=O)(=O)Nc1ccc(F)c(Nc2ncnc3cc(OC)c(-c4cccnc4F)cc23)c1F [compound 28, N-(2,4-difluoro-3-(6-(2-fluoropyridin-3-yl)-7-methoxyquinazolin-4-ylamino)phenyl)propane-1-sulfonamide]",< 0.3,< 0.3,< 0.3,> 3,–,< 2,0.3 to 1
"CCCS(=O)(=O)Nc1ccc(F)c(Nc2ncnc3ccc(-c4ccc(OCCN(C)C)nc4)cc23)c1F [compound 35, N-(3-(6-(6-(2-(dimethylamino)ethoxy)-pyridin-3-yl)quinazolin-4-ylamino)-2,4-difluorophenyl)propane-1-sulfonamide]",< 0.3,< 0.3,1 to 10,> 3,–,< 2,0.3 to 1
"CCCS(=O)(=O)Nc1ccc(F)c(Nc2ncnc3ccc(-c4ccc(=O)[nH]c4)cc23)c1F [compound 32, N-(2,4-difluoro-3-(6-(6-oxo-1,6-dihydropyridin-3-yl)quinazolin-4-ylamino)phenyl)propane-1-sulfonamide]",< 0.3,< 0.3,0.3 to 1,> 3,> 3,< 2,–
"CCCS(=O)(=O)Nc1ccc(F)c(Nc2ncnc3cc(F)c(-c4cccnc4F)cc23)c1F [compound 7, N-(2,4-difluoro-3-(7-fluoro-6-(2-fluoropyridin-3-yl)quinazolin-4-ylamino)phenyl)propane-1-sulfonamide]",< 0.3,< 0.3,< 0.3,> 3,> 3,< 2,–
"CCCS(=O)(=O)Nc1ccc(F)c(Nc2ncnc3cc(OCCOC)c(-c4cccnc4F)cc23)c1F [compound 29, N-(2,4-difluoro-3-(6-(2-fluoropyridin-3-yl)-7-(2-methoxyethoxy)quinazolin-4-ylamino)phenyl)propane-1-sulfonamide]",< 0.3,< 0.3,< 0.3,> 3,–,< 2,0.3 to 1
"O=S(=O)(CCCF)Nc1ccc(F)c(Nc2ncnc3ccc(-c4cccnc4F)cc23)c1F [compound 44, N-(2,4-difluoro-3-(6-(2-fluoropyridin-3-yl)quinazolin-4-ylamino)phenyl)-3-fluoropropane-1-sulfonamide]",< 0.3,< 0.3,< 0.3,> 3,> 3,< 2,–
"CCCS(=O)(=O)Nc1ccc(F)c(Nc2ncnc3ccc(-c4ccc(N5CCOCC5)nc4)cc23)c1F [compound 2, N-(2,4-difluoro-3-(6-(6-morpholinopyridin-3-yl)quinazolin-4-ylamino)phenyl)propane-1-sulfonamide]",< 0.3,< 0.3,< 0.3,> 3,–,< 2,1 to 3
"CCCCS(=O)(=O)Nc1ccc(F)c(Nc2ncnc3ccc(-c4cccnc4F)cc23)c1F [compound 18, N-(2,4-difluoro-3-(6-(2-fluoropyridin-3-yl)quinazolin-4-ylamino)phenyl)butane-1-sulfonamide]",< 0.3,< 0.3,< 0.3,> 3,> 3,< 2,–
"O=S(=O)(Nc1ccc(F)c(Nc2ncnc3ccc(-c4cccnc4F)cc23)c1F)c1ccccc1 [compound 21, N-(2,4-difluoro-3-(6-(2-fluoropyridin-3-yl)quinazolin-4-ylamino)phenyl)benzenesulfonamide]",< 0.3,< 0.3,< 0.3,> 3,–,< 2,1 to 3
